Values of other authors as cited in paper PMC6256190 (Biomedical Reports, 2018).

Conditions: dry extract of ginger 100 mg to 2 g, 27 healthy American participants; glucuronides were detected

For `CCCCC[C@H](O)CC(=O)CCc1ccc(O)c(OC)c1` [6-gingerol], the “Free compound in plasma” value is listed as “no free”.
